Laboratory results taken from US20070191291A1, “Compound antibacterial drugs comprising n-acetyl-d-glucosamine” (priority 2003, published 2007).

Tested on: E. coli
Experiment: Test Example 1: inducing E. coli CGC with N-acetyl-D-glucosamine and antibiotics in different ratios (K-B method, microscopy)
Assay type: cell-based

CC(=O)N[C@@H]1[C@@H](O)[C@H](O)[C@@H](CO)O[C@H]1O [Compound (I), N-acetyl-D-glucosamine]
CGC formation (Compound (I) 150 mg, macrolide (spiramycin) 500 mg): − (if cell length was not greater than 50 μm and cell number was within the range from 0 to 4 in each visual field, it was deemed as CGC negative and was marked with “−”) | CGC formation (Compound (I) 150 mg, macrolide (spiramycin) 700 mg): − (if cell length was not greater than 50 μm and cell number was within the range from 0 to 4 in each visual field, it was deemed as CGC negative and was marked with “−”) | CGC formation (Compound (I) 150 mg, macrolide (spiramycin) 900 mg): − (if cell length was not greater than 50 μm and cell number was within the range from 0 to 4 in each visual field, it was deemed as CGC negative and was marked with “−”) | CGC formation (Compound (I) 150 mg, macrolide (spiramycin) 1100 mg): + (If cell length was more than 50 μm and cell number was more than 5 in each visual field, it was deemed as CGC positive and was marked with “+”) | CGC formation (Compound (I) 150 mg, macrolide (spiramycin) 1300 mg): + (If cell length was more than 50 μm and cell number was more than 5 in each visual field, it was deemed as CGC positive and was marked with “+”) | CGC formation (Compound (I) 150 mg, macrolide (spiramycin) 1500 mg): + (If cell length was more than 50 μm and cell number was more than 5 in each visual field, it was deemed as CGC positive and was marked with “+”) | CGC formation (Compound (I) 150 mg, quinoline (ciprofloxacin, norfloxacin) 150 mg): − (if cell length was not greater than 50 μm and cell number was within the range from 0 to 4 in each visual field, it was deemed as CGC negative and was marked with “−”) | CGC formation (Compound (I) 150 mg, quinoline (ciprofloxacin, norfloxacin) 200 mg): − (if cell length was not greater than 50 μm and cell number was within the range from 0 to 4 in each visual field, it was deemed as CGC negative and was marked with “−”) | CGC formation (Compound (I) 200 mg, aminoglycoside (kanamycin, gentamycin) 50 mg): − (if cell length was not greater than 50 μm and cell number was within the range from 0 to 4 in each visual field, it was deemed as CGC negative and was marked with “−”) | CGC formation (Compound (I) 200 mg, aminoglycoside (kanamycin, gentamycin) 100 mg): − (if cell length was not greater than 50 μm and cell number was within the range from 0 to 4 in each visual field, it was deemed as CGC negative and was marked with “−”) | CGC formation (Compound (I) 200 mg, aminoglycoside (kanamycin, gentamycin) 150 mg): − (if cell length was not greater than 50 μm and cell number was within the range from 0 to 4 in each visual field, it was deemed as CGC negative and was marked with “−”) | CGC formation (Compound (I) 200 mg, aminoglycoside (kanamycin, gentamycin) 200 mg): − (if cell length was not greater than 50 μm and cell number was within the range from 0 to 4 in each visual field, it was deemed as CGC negative and was marked with “−”) | CGC formation (Compound (I) 200 mg, aminoglycoside (kanamycin, gentamycin) 300 mg): − (if cell length was not greater than 50 μm and cell number was within the range from 0 to 4 in each visual field, it was deemed as CGC negative and was marked with “−”) | CGC formation (Compound (I) 200 mg, aminoglycoside (kanamycin, gentamycin) 400 mg): + (If cell length was more than 50 μm and cell number was more than 5 in each visual field, it was deemed as CGC positive and was marked with “+”) | CGC formation (Compound (I) 200 mg, aminoglycoside (kanamycin, gentamycin) 500 mg): + (If cell length was more than 50 μm and cell number was more than 5 in each visual field, it was deemed as CGC positive and was marked with “+”) | CGC formation (Compound (I) 200 mg, macrolide (spiramycin) 300 mg): − (if cell length was not greater than 50 μm and cell number was within the range from 0 to 4 in each visual field, it was deemed as CGC negative and was marked with “−”) | CGC formation (Compound (I) 200 mg, macrolide (spiramycin) 500 mg): − (if cell length was not greater than 50 μm and cell number was within the range from 0 to 4 in each visual field, it was deemed as CGC negative and was marked with “−”) | CGC formation (Compound (I) 200 mg, macrolide (spiramycin) 700 mg): − (if cell length was not greater than 50 μm and cell number was within the range from 0 to 4 in each visual field, it was deemed as CGC negative and was marked with “−”) | CGC formation (Compound (I) 200 mg, macrolide (spiramycin) 900 mg): − (if cell length was not greater than 50 μm and cell number was within the range from 0 to 4 in each visual field, it was deemed as CGC negative and was marked with “−”) | CGC formation (Compound (I) 200 mg, macrolide (spiramycin) 1100 mg): − (if cell length was not greater than 50 μm and cell number was within the range from 0 to 4 in each visual field, it was deemed as CGC negative and was marked with “−”) | CGC formation (Compound (I) 200 mg, macrolide (spiramycin) 1300 mg): + (If cell length was more than 50 μm and cell number was more than 5 in each visual field, it was deemed as CGC positive and was marked with “+”) | CGC formation (Compound (I) 200 mg, macrolide (spiramycin) 1500 mg): + (If cell length was more than 50 μm and cell number was more than 5 in each visual field, it was deemed as CGC positive and was marked with “+”) | CGC formation (Compound (I) 250 mg, aminoglycoside (kanamycin, gentamycin) 50 mg): − (if cell length was not greater than 50 μm and cell number was within the range from 0 to 4 in each visual field, it was deemed as CGC negative and was marked with “−”) | CGC formation (Compound (I) 250 mg, aminoglycoside (kanamycin, gentamycin) 100 mg): − (if cell length was not greater than 50 μm and cell number was within the range from 0 to 4 in each visual field, it was deemed as CGC negative and was marked with “−”) | CGC formation (Compound (I) 250 mg, aminoglycoside (kanamycin, gentamycin) 150 mg): − (if cell length was not greater than 50 μm and cell number was within the range from 0 to 4 in each visual field, it was deemed as CGC negative and was marked with “−”) | CGC formation (Compound (I) 250 mg, aminoglycoside (kanamycin, gentamycin) 200 mg): − (if cell length was not greater than 50 μm and cell number was within the range from 0 to 4 in each visual field, it was deemed as CGC negative and was marked with “−”) | CGC formation (Compound (I) 250 mg, aminoglycoside (kanamycin, gentamycin) 300 mg): − (if cell length was not greater than 50 μm and cell number was within the range from 0 to 4 in each visual field, it was deemed as CGC negative and was marked with “−”) | CGC formation (Compound (I) 250 mg, aminoglycoside (kanamycin, gentamycin) 400 mg): − (if cell length was not greater than 50 μm and cell number was within the range from 0 to 4 in each visual field, it was deemed as CGC negative and was marked with “−”) | CGC formation (Compound (I) 250 mg, aminoglycoside (kanamycin, gentamycin) 500 mg): + (If cell length was more than 50 μm and cell number was more than 5 in each visual field, it was deemed as CGC positive and was marked with “+”) | CGC formation (Compound (I) 250 mg, macrolide (spiramycin) 300 mg): − (if cell length was not greater than 50 μm and cell number was within the range from 0 to 4 in each visual field, it was deemed as CGC negative and was marked with “−”) | CGC formation (Compound (I) 250 mg, macrolide (spiramycin) 500 mg): − (if cell length was not greater than 50 μm and cell number was within the range from 0 to 4 in each visual field, it was deemed as CGC negative and was marked with “−”) | CGC formation (Compound (I) 250 mg, macrolide (spiramycin) 700 mg): − (if cell length was not greater than 50 μm and cell number was within the range from 0 to 4 in each visual field, it was deemed as CGC negative and was marked with “−”) | CGC formation (Compound (I) 250 mg, macrolide (spiramycin) 900 mg): − (if cell length was not greater than 50 μm and cell number was within the range from 0 to 4 in each visual field, it was deemed as CGC negative and was marked with “−”) | CGC formation (Compound (I) 250 mg, macrolide (spiramycin) 1100 mg): − (if cell length was not greater than 50 μm and cell number was within the range from 0 to 4 in each visual field, it was deemed as CGC negative and was marked with “−”) | CGC formation (Compound (I) 250 mg, macrolide (spiramycin) 1300 mg): − (if cell length was not greater than 50 μm and cell number was within the range from 0 to 4 in each visual field, it was deemed as CGC negative and was marked with “−”) | CGC formation (Compound (I) 250 mg, macrolide (spiramycin) 1500 mg): + (If cell length was more than 50 μm and cell number was more than 5 in each visual field, it was deemed as CGC positive and was marked with “+”) | CGC formation (Compound (I) 300 mg, aminoglycoside (kanamycin, gentamycin) 50 mg): − (if cell length was not greater than 50 μm and cell number was within the range from 0 to 4 in each visual field, it was deemed as CGC negative and was marked with “−”) | CGC formation (Compound (I) 300 mg, aminoglycoside (kanamycin, gentamycin) 100 mg): − (if cell length was not greater than 50 μm and cell number was within the range from 0 to 4 in each visual field, it was deemed as CGC negative and was marked with “−”) | CGC formation (Compound (I) 300 mg, aminoglycoside (kanamycin, gentamycin) 150 mg): − (if cell length was not greater than 50 μm and cell number was within the range from 0 to 4 in each visual field, it was deemed as CGC negative and was marked with “−”) | CGC formation (Compound (I) 300 mg, aminoglycoside (kanamycin, gentamycin) 200 mg): − (if cell length was not greater than 50 μm and cell number was within the range from 0 to 4 in each visual field, it was deemed as CGC negative and was marked with “−”) | CGC formation (Compound (I) 300 mg, aminoglycoside (kanamycin, gentamycin) 300 mg): − (if cell length was not greater than 50 μm and cell number was within the range from 0 to 4 in each visual field, it was deemed as CGC negative and was marked with “−”) | CGC formation (Compound (I) 300 mg, aminoglycoside (kanamycin, gentamycin) 400 mg): − (if cell length was not greater than 50 μm and cell number was within the range from 0 to 4 in each visual field, it was deemed as CGC negative and was marked with “−”) | CGC formation (Compound (I) 300 mg, aminoglycoside (kanamycin, gentamycin) 500 mg): − (if cell length was not greater than 50 μm and cell number was within the range from 0 to 4 in each visual field, it was deemed as CGC negative and was marked with “−”) | CGC formation (Compound (I) 300 mg, macrolide (spiramycin) 300 mg): − (if cell length was not greater than 50 μm and cell number was within the range from 0 to 4 in each visual field, it was deemed as CGC negative and was marked with “−”) | CGC formation (Compound (I) 300 mg, macrolide (spiramycin) 500 mg): − (if cell length was not greater than 50 μm and cell number was within the range from 0 to 4 in each visual field, it was deemed as CGC negative and was marked with “−”) | CGC formation (Compound (I) 300 mg, macrolide (spiramycin) 700 mg): − (if cell length was not greater than 50 μm and cell number was within the range from 0 to 4 in each visual field, it was deemed as CGC negative and was marked with “−”) | CGC formation (Compound (I) 300 mg, macrolide (spiramycin) 900 mg): − (if cell length was not greater than 50 μm and cell number was within the range from 0 to 4 in each visual field, it was deemed as CGC negative and was marked with “−”) | CGC formation (Compound (I) 300 mg, macrolide (spiramycin) 1100 mg): − (if cell length was not greater than 50 μm and cell number was within the range from 0 to 4 in each visual field, it was deemed as CGC negative and was marked with “−”) | CGC formation (Compound (I) 300 mg, macrolide (spiramycin) 1300 mg): − (if cell length was not greater than 50 μm and cell number was within the range from 0 to 4 in each visual field, it was deemed as CGC negative and was marked with “−”) | CGC formation (Compound (I) 300 mg, macrolide (spiramycin) 1500 mg): − (if cell length was not greater than 50 μm and cell number was within the range from 0 to 4 in each visual field, it was deemed as CGC negative and was marked with “−”)
